The target of experiment [1] is Beta Secretase enzyme (BACE) (Homo sapiens (Human), UniProt P56817). The experiment is described as follows: In vitro enzymatic BACE FRET assay. The settings on record: read-out: BACE1 Enzyme assay IC50. In kind it is biochemical.
Experimental: In Vitro Enzymatic BACE FRET (Fluorescence Resonance Energy Transfer) Assay (Enzyme Assay Data in the Example Table I)
The assay buffer used in this screen is 0.05 M acetate, pH 4.2, 10% DMSO final, 100 uM genapol (which is a nonionic detergent, below its Critical Micelle Concentration). […] This assay is effectively started by the addition of FRET substrate (50 nM) and the combination is incubated for one hour. The FRET assay is terminated with by addition of Tris buffer, which raises the pH to neutrality, and the fluorescence is determined. The FRET substrate is a peptide with commercially available fluorophore and quencher, on opposite sides of the BACE cleavage site.
Experiment [2] has as its target Cathepsin D (Cat D) (Homo sapiens (Human), UniProt P07339). The experiment in a line: In vitro enzymatic Cathepsin D (Cat D) FRET assay. The experiment is classed as biochemical. The settings on record: read-out: CatD IC50.
Experiment [3] addresses BACE (Homo sapiens (Human), UniProt P56817). The experiment is described as follows: In vitro BACE cell-based assay (Aβ40 in conditioned medium, sandwich ELISA). For orientation: ELISA stands for enzyme-linked immunosorbent assay.

The IC50 is the midpoint of a concentration-inhibition curve.

Chain of BACE (P56817 46-501, species assumed): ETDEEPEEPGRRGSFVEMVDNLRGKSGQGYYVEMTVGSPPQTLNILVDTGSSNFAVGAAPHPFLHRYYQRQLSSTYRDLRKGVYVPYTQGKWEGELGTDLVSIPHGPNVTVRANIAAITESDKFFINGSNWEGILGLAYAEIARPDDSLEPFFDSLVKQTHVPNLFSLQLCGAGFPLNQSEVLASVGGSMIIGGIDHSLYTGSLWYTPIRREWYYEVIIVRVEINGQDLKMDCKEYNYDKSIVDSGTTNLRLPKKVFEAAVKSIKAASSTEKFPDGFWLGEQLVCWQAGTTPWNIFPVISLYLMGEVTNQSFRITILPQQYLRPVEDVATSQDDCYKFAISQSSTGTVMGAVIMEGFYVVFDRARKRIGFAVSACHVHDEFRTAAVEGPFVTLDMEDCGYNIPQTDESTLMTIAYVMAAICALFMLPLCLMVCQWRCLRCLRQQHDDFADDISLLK
Chain of Beta Secretase enzyme (BACE) (P56817 46-501): as the sequence (P56817 46-501, species assumed) above
Chain of Cathepsin D (Cat D) (P07339 65-412, species assumed): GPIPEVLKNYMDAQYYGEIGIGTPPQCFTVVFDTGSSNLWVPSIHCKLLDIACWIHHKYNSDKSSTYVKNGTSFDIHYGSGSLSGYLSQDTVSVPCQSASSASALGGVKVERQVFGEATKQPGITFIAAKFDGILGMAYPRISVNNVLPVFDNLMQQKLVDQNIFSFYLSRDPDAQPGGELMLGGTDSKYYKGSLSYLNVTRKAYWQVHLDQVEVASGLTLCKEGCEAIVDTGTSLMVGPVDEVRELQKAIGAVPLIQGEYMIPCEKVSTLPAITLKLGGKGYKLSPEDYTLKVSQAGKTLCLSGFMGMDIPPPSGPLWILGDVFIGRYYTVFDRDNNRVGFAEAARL

For the compound `NC1=N[C@@](c2cc(NC[C@@H]3C[C@H]3c3ccccc3)ccc2F)(C(F)F)[C@H]2C[C@H]2O1` [Example 371, (1R,5S,6R)-5-(difluoromethyl)-5-(2-fluoro-5-((((l(S,R),2(S,R))-2-phenylcyclopropyl)methyl)amino)phenyl)-2-oxa-4-azabicyclo[4.1.0]hept-3-en-3-amine], the values for the IC50 in experiment [1], in experiment [2] and in experiment [3] were 11200 nM, 102 µM and 2.67 µM, respectively.

For the compound `NC1=N[C@@](c2cc(NC[C@H]3C[C@H]3c3ccccc3)ccc2F)(C(F)F)[C@H]2C[C@H]2O1` [Example 372, (1R,5S,6R)-5-(difluoromethyl)-5-(2-fluoro-5-((((1(S,R),2(R,S))-2-phenylcyclopropyl)methyl)amino)phenyl)-2-oxa-4-azabicyclo[4.1.0]hept-3-en-3-amine], the IC50 in experiment [1] was 9420 nM; in experiment [2], 85.5 µM; in experiment [3], 4.94 µM.

For the compound `C=C1CC(CNc2ccc(F)c([C@@]3(C(F)F)N=C(N)O[C@@H]4C[C@@H]43)c2)C1` [Example 375, (1R,5S,6R)-5-(difluoromethyl)-5-(2-fluoro-5-(((3-methylenecyclobutyl)methyl)amino)phenyl)-2-oxa-4-azabicyclo[4.1.0]hept-3-en-3-amine], the IC50 in experiment [1] came out at 6000 nM; in experiment [2], 78.9 µM; in experiment [3] it was 2.53 µM.

As for `NC1=N[C@@](c2cc(NCC3(C(F)(F)F)CC3)ccc2F)(C(F)F)[C@H]2C[C@H]2O1` [Example 376, (1R,5S,6R)-5-(difluoromethyl)-5-(2-fluoro-5-(((1-(trifluoromethyl)cyclopropyl)methyl)amino)phenyl)-2-oxa-4-azabicyclo[4.1.0]hept-3-en-3-amine], the IC50 in experiment [1] turned out to be 2100 nM; in experiment [2], 52.9 µM; in experiment [3], 1.15 µM.

With `NC1=N[C@@](c2cc(NCc3ccc(Cl)cn3)ccc2F)(C(F)F)[C@H]2C[C@H]2O1` [Example 377, (1R,5S,6R)-5-(5-(((5-chloropyridin-2-yl)methyl)amino)-2-fluorophenyl)-5-(difluoromethyl)-2-oxa-4-azabicyclo[4.1.0]hept-3-en-3-amine], the IC50 in experiment [1] worked out at 2840 nM; in experiment [2], 177 µM; in experiment [3] it was 1.11 µM.

With `NC1=N[C@@](c2cc(NCC3CC3)ccc2F)(C(F)F)[C@H]2C[C@H]2O1` [Example 379, (1R,5S,6R)-5-(5-((cyclopropylmethyl)amino)-2-fluorophenyl)-5-(difluoromethyl)-2-oxa-4-azabicyclo[4.1.0]hept-3-en-3-amine], the IC50 was found to be 1410 nM in experiment [1], 188 µM in experiment [2] and 0.564 µM in experiment [3].

For `COCc1cc(C#N)cnc1C(=O)Nc1ccc(Cl)c([C@@]2(CF)N=C(N)O[C@@H]3C[C@@H]32)c1` [Example 386, N-(3-((1R,5S,6R)-3-amino-5-(fluoromethyl)-2-oxa-4-azabicyclo[4.1.0]hept-3-en-5-yl)-4-chlorophenyl)-5-cyano-3-(methoxymethyl)picolinamide], the IC50 amounted to 25.1 nM in experiment [1], 1820 µM in experiment [2] and 0.0085 µM in experiment [3].

Take `N#Cc1cnc(C(=O)Nc2ccc(Cl)c([C@@]3(CF)N=C(N)O[C@@H]4C[C@@H]43)c2)c(CO)c1` [Example 387, N-(3-((1R,5S,6R)-3-amino-5-(fluoromethyl)-2-oxa-4-azabicyclo[4.1.0]hept-3-en-5-yl)-4-chlorophenyl)-5-cyano-3-(hydroxymethyl)picolinamide]: the IC50 in experiment [1] was 39.1 nM; in experiment [2], 352 µM; in experiment [3] it was 0.0145 µM.

Turning to `CN(C)c1cc(C#N)cnc1C(=O)Nc1ccc(F)c([C@@]2(C(F)F)N=C(N)O[C@@H]3C[C@@H]32)c1` [Example 389, N-(3-((1R,5S,6R)-3-amino-5-(difluoromethyl)-2-oxa-4-azabicyclo[4.1.0]hept-3-en-5-yl)-4-fluorophenyl)-5-cyano-3-(dimethylamino)picolinamide], the IC50 came out at 91.5 nM in experiment [1], 732 µM in experiment [2] and 0.0747 µM in experiment [3].

As for `N#Cc1cnc2c(Nc3ccc(F)c([C@@]4(CF)N=C(N)O[C@@H]5C[C@@H]54)c3)ncnc2c1` [Example 393, 4-((3-((1R,5S,6R)-3-amino-5-(fluoromethyl)-2-oxa-4-azabicyclo[4.1.0]hept-3-en-5-yl)-4-fluorophenyl)amino)pyrido[3,2-d]pyrimidine-7-carbonitrile], the IC50 in experiment [1] amounted to 198 nM; in experiment [2], 147 µM; in experiment [3], 0.0243 µM.

Take `CC(C)c1cc(C#N)cnc1C(=O)Nc1ccc(F)c([C@@]2(C(F)F)N=C(N)O[C@@H]3C[C@@H]32)c1` [Example 394, N-(3-((1R,5S,6R)-3-amino-5-(difluoromethyl)-2-oxa-4-azabicyclo[4.1.0]hept-3-en-5-yl)-4-fluorophenyl)-5-cyano-3-isopropylpicolinamide]: the results for the IC50 in experiment [1], in experiment [2] and in experiment [3] were 134 nM, 1070 µM and 0.289 µM, respectively.

Consider `N#Cc1cnc(C(=O)Nc2ccc(F)c([C@@]3(C(F)F)N=C(N)O[C@@H]4C[C@@H]43)c2)c(C(F)F)c1` [Example 395, N-(3-((1R,5S,6R)-3-amino-5-(difluoromethyl)-2-oxa-4-azabicyclo[4.1.0]hept-3-en-5-yl)-4-fluorophenyl)-5-cyano-3-(difluoromethyl)picolinamide], for which the results for the IC50 in experiment [1], in experiment [2] and in experiment [3] were 14.4 nM, 477 µM and 0.0737 µM, respectively.

As for `N#Cc1cnc(C(=O)Nc2ccc(F)c([C@@]3(C(F)F)N=C(N)O[C@@H]4C[C@@H]43)c2)c(CO)c1` [Example 396, N-(3-((1R,5S,6R)-3-amino-5-(difluoromethyl)-2-oxa-4-azabicyclo[4.1.0]hept-3-en-5-yl)-4-fluorophenyl)-5-cyano-3-(hydroxymethyl)picolinamide], the IC50 worked out at 17 nM in experiment [1], 198 µM in experiment [2] and 0.151 µM in experiment [3].

In the case of `COc1cc(C#N)cnc1C(=O)Nc1ccc(Cl)c([C@@]2(CF)N=C(N)O[C@@H]3C[C@@H]32)c1` [Example 397, N-(3-((1R,5S,6R)-3-amino-5-(fluoromethyl)-2-oxa-4-azabicyclo[4.1.0]hept-3-en-5-yl)-4-chlorophenyl)-5-cyano-3-methoxypicolinamide], the IC50 in experiment [1] is 81 nM; in experiment [2], > 400 µM; in experiment [3], 0.009 µM.

Take `Cc1cc(NC(=O)c2ncc(C#N)cc2F)cc([C@@]2(C(F)F)N=C(N)O[C@@H]3C[C@@H]32)c1F` [Example 398, N-(3-((1R,5S,6R)-3-amino-5-(difluoromethyl)-2-oxa-4-azabicyclo[4.1.0]hept-3-en-5-yl)-4-fluoro-5-methylphenyl)-5-cyano-3-fluoropicolinamide]: the 50% inhibitory concentration (IC50) is 33.5 nM in experiment [1], 690 µM in experiment [2] and 0.0123 µM in experiment [3].

Consider `COc1cc(C#N)cnc1C(=O)Nc1cc(C)c(F)c([C@@]2(C(F)F)N=C(N)O[C@@H]3C[C@@H]32)c1` [Example 399, N-(3-((1R,5S,6R)-3-amino-5-(difluoromethyl)-2-oxa-4-azabicyclo[4.1.0]hept-3-en-5-yl)-4-fluoro-5-methylphenyl)-5-cyano-3-methoxypicolinamide], for which the IC50 in experiment [1] is 70.6 nM; in experiment [2], 1090 µM; in experiment [3], 0.0208 µM.

`NC1=N[C@@](c2cc(NC(=O)c3ccc(C#CC4CC4)cn3)ccc2F)(C(F)F)[C@H]2C[C@H]2O1` [Example 405, N-(3-((1R,5S,6R)-3-amino-5-(difluoromethyl)-2-oxa-4-azabicyclo[4.1.0]hept-3-en-5-yl)-4-fluorophenyl)-5-(cyclopropylethynyl)picolinamide]: the IC50 in experiment [1] was found to be 23.7 nM; in experiment [2], 399 µM; in experiment [3], 0.215 µM.

Turning to `NC1=N[C@@](c2cc(Nc3nccc4cc(C#CC5CC5)cnc34)ccc2F)(C(F)F)[C@H]2C[C@H]2O1` [Example 406, (1R,5S,6R)-5-(5-((3-(cyclopropylethynyl)-1,7-naphthyridin-8-yl)amino)-2-fluorophenyl)-5-(difluoromethyl)-2-oxa-4-azabicyclo[4.1.0]hept-3-en-3-amine], the results for the IC50 in experiment [1], in experiment [2] and in experiment [3] were 75.9 nM, 8910 µM and 0.861 µM, respectively.

As for `NC1=N[C@@](c2cc(NC(=O)c3cnc(C#CC4CC4)cn3)ccc2F)(C(F)F)[C@H]2C[C@H]2O1` [Example 407, N-(3-((1R,5S,6R)-3-amino-5-(difluoromethyl)-2-oxa-4-azabicyclo[4.1.0]hept-3-en-5-yl)-4-fluorophenyl)-5-(cyclopropylethynyl)pyrazine-2-carboxamide], the IC50 in experiment [1] was 29.6 nM; in experiment [2], 170 µM; in experiment [3], 0.301 µM.

Take `NC1=N[C@@](c2cc(Nc3ncc(F)c4cc(C#CC5CC5)cnc34)ccc2F)(C(F)F)[C@H]2C[C@H]2O1` [Example 408, (1R,5S,6R)-5-(5-((3-(cyclopropylethynyl)-5-fluoro-1,7-naphthyridin-8-yl)amino)-2-fluorophenyl)-5-(difluoromethyl)-2-oxa-4-azabicyclo[4.1.0]hept-3-en-3-amine]: the figures for the half-inhibitory concentration (IC50) in experiment [1], in experiment [2] and in experiment [3] were 46.3 nM, 347 µM and 1.58 µM, respectively.

As for `CC1(C#Cc2ccc(C(=O)Nc3ccc(F)c([C@@]4(C(F)F)N=C(N)O[C@@H]5C[C@@H]54)c3)nc2)COC1` [Example 409, N-(3-((1R,5S,6R)-3-amino-5-(difluoromethyl)-2-oxa-4-azabicyclo[4.1.0]hept-3-en-5-yl)-4-fluorophenyl)-5-((3-methyloxetan-3-yl)ethynyl)picolinamide], the IC50 in experiment [1] came to 327 nM; in experiment [2], 748 µM; in experiment [3] it was 0.514 µM.

Consider `NC1=N[C@@](c2cc(NC(=O)c3cnc(OCC#CC4CC4)cn3)ccc2F)(C(F)F)[C@H]2C[C@H]2O1` [Example 411, N-(3-((1R,5S,6R)-3-amino-5-(difluoromethyl)-2-oxa-4-azabicyclo[4.1.0]hept-3-en-5-yl)-4-fluorophenyl)-5-((3-cyclopropylprop-2-yn-1-yl)oxy)pyrazine-2-carboxamide], for which the IC50 in experiment [1] came out at 7.6 nM; in experiment [2] it was 360 µM; in experiment [3], 0.112 µM.

Values taken from US9085576B2 (AMGEN INC., priority 2013, dated 2015).
